Measured values taken from PMC9454848, “BMS-986158, a Small Molecule Inhibitor of the Bromodomain and Extraterminal Domain Proteins, in Patients with Selected Advanced Solid Tumors: Results from a Phase 1/2a Trial” (Cancers, 2022).
Entries after “also recorded” stand apart in the source; their conditions may differ. Where two headings read alike, the source gives them in different places.

How the values were obtained:
Assay type in all cases: in vivo, human
HEXIM1 mRNA = assay: Change from baseline in gene expression, HEXIM1; settings: patients; by dose
Protocol: (§1) Summary changes from baseline in the expression of BET-regulated genes were assessed in tumor tissues and blood collected at baseline and multiple on-treatment time points after BMS-986158 administration following the 3 dosing schedules. The study also assessed summary percent changes from baseline in expression of BET-regulated genes in peripheral blood and tumors (such as HEXIM1 and C-MYC). Tissue and peripheral blood samples (at baseline and on treatment) were collected for genomic, transcriptomic, and epigenetic analyses (by DNA or mRNA) to assess pharmacodynamic changes in BET-regulated genes. These samples were analyzed using whole-exome sequencing, real-time quantitative polymerase chain reaction, and RNA-sequencing methods.
(§2) All treated patients with available biomarker measurements at baseline and ≥1 time point were included in the biomarker analyses. Blood and tumor tissue samples were collected at baseline, during treatment, and at end of treatment for biomarker analysis. Markers of selected BET-regulated genes (e.g., HEXIM1) were analyzed with summary statistics for percent changes in expression from available matched pre- and on-treatment samples over time relative to baseline. Statistically significant changes in gene expression were determined using the Benjamini–Hochberg procedure to calculate an adjusted p value with an α level of 0.05.

CCR2 mRNA = assay: Change from baseline in gene expression, CCR2; settings: patients; single dose up to 4.5 mg and schedule A
Protocol: as §1, §2

[1] = Plasma pharmacokinetics after multiple doses (cycle 2, steady state), LC-MS/MS; settings: for AUC(0-t) / half-life / Tmax / Cmax: human, plasma, oral
Protocol: At C1D1 in every dosing schedule cohort, a single dose was administered followed by 168 h (i.e., 7 days) of intensive PK sampling. Following cycle 1, the multiple-dose treatment schedules (described above) began in cycle 2. PK parameters were derived following single dose combined across all schedules and multiple doses at cycle 2 for each schedule. […] PK assessments were evaluated for BMS-986158 and its metabolite using plasma samples at regular intervals. Both the parent and metabolite samples were simultaneously analyzed using a validated liquid chromatography and tandem mass spectrometry assay.
All treated patients who received ≥1 dose of BMS-986158 were evaluated in the safety population. […] All treated patients with available and sufficient serum or plasma samples for the corresponding analytes were included in the PK analyses. […] ECG parameters were evaluated in a categorical analysis, and linear mixed-effects regression modeling was used to describe the quantitative relationship between ΔQTcF and time-matched serum concentrations of BMS-986158 or its metabolite at a single dose.

Cc1nnn(C)c1-c1cnc2c3ccc(C(C)(C)O)cc3n([C@H](c3ccccc3)C3CCOCC3)c2c1 [BMS-986158]
HEXIM1 mRNA expression change from baseline (HEXIM1 mRNA): dose dependently upregulated; also recorded: transcriptional activation | CCR2 mRNA expression change from baseline (CCR2 mRNA): transcriptional suppression; also recorded: dose-dependent expression changes | CL/F at steady state, geometric mean, range across doses ([1]; Schedule A): 4.60 to 5.41 mL/min | CL/F at steady state, geometric mean, range across doses ([1]; Schedule B): 3.76 to 9.72 mL/min | CL/F at steady state, geometric mean, range across doses ([1]; Schedule C): 3.89 to 6.65 mL/min | AUC(0-t) ([1]; 0.75 mg, multiple dose, steady state, Schedule A (5 days on, 2 days off), 0.75 mg, n = 3, read-out: AUC(0–24), GM (%CV)): 2720 ng·h/mL | half-life ([1]; 0.75 mg, multiple dose, steady state, Schedule A (5 days on, 2 days off), 0.75 mg, n = 3, read-out: Effective T1/2, mean (SD) (converted)): 36 h | AUC(0-t) ([1]; 0.75 mg, multiple dose, steady state, Schedule A (5 days on, 2 days off), 0.75 mg, n = 4, read-out: AUC(0–T), GM (%CV)): 3450 ng·h/mL | Tmax ([1]; 0.75 mg, multiple dose, steady state, Schedule A (5 days on, 2 days off), 0.75 mg, n = 4, read-out: Tmax, median (range)): 3.14 h | Cmax ([1]; 0.75 mg, multiple dose, steady state, Schedule A (5 days on, 2 days off), n = 4): 136 ng/mL | AUC(0-t) ([1]; 1.25 mg, multiple dose, steady state, Schedule A (5 days on, 2 days off), 1.25 mg, n = 1, read-out: AUC(0–24), GM (%CV)): 3850 ng·h/mL | AUC(0-t) ([1]; 1.25 mg, multiple dose, steady state, Schedule A (5 days on, 2 days off), 1.25 mg, n = 4, read-out: AUC(0–T), GM (%CV)): 4960 ng·h/mL | Tmax ([1]; 1.25 mg, multiple dose, steady state, Schedule A (5 days on, 2 days off), 1.25 mg, n = 4, read-out: Tmax, median (range)): 1.5 h | Cmax ([1]; 1.25 mg, multiple dose, steady state, Schedule A (5 days on, 2 days off), n = 4): 284 ng/mL | AUC(0-t) ([1]; 2 mg, multiple dose, steady state, Schedule A (5 days on, 2 days off), 2.0 mg, n = 7, read-out: AUC(0–T), GM (%CV)): 7610 ng·h/mL | Tmax ([1]; 2 mg, multiple dose, steady state, Schedule A (5 days on, 2 days off), 2.0 mg, n = 7, read-out: Tmax, median (range)): 2 h | Cmax ([1]; 2 mg, multiple dose, steady state, Schedule A (5 days on, 2 days off), n = 7): 442 ng/mL | AUC(0-t) ([1]; 2 mg, multiple dose, steady state, Schedule B (14 days on, 7 days off), 2.0 mg, n = 1, read-out: AUC(0–24), GM (%CV)): 3430 ng·h/mL | AUC(0-t) ([1]; 2 mg, multiple dose, steady state, Schedule B (14 days on, 7 days off), 2.0 mg, n = 1, read-out: AUC(0–T), GM (%CV)): 6320 ng·h/mL | half-life ([1]; 2 mg, multiple dose, steady state, Schedule B (14 days on, 7 days off), 2.0 mg, n = 1, read-out: Effective T1/2, mean (SD) (converted)): 14.4 h | Tmax ([1]; 2 mg, multiple dose, steady state, Schedule B (14 days on, 7 days off), 2.0 mg, n = 1, read-out: Tmax, median (range)): 1 h | Cmax ([1]; 2 mg, multiple dose, steady state, Schedule B (14 days on, 7 days off), n = 1): 279 ng/mL | AUC(0-t) ([1]; 2 mg, multiple dose, steady state, Schedule C (7 days on, 14 days off), 2.0 mg, n = 5, read-out: AUC(0–24), GM (%CV)): 8560 ng·h/mL | AUC(0-t) ([1]; 2 mg, multiple dose, steady state, Schedule C (7 days on, 14 days off), 2.0 mg, n = 5, read-out: AUC(0–T), GM (%CV)): 19900 ng·h/mL | half-life ([1]; 2 mg, multiple dose, steady state, Schedule C (7 days on, 14 days off), 2.0 mg, n = 5, read-out: Effective T1/2, mean (SD) (converted)): 31.6 h | Tmax ([1]; 2 mg, multiple dose, steady state, Schedule C (7 days on, 14 days off), 2.0 mg, n = 5, read-out: Tmax, median (range)): 1 h | Cmax ([1]; 2 mg, multiple dose, steady state, Schedule C (7 days on, 14 days off), n = 5): 520 ng/mL | AUC(0-t) ([1]; 3 mg, multiple dose, steady state, Schedule A (5 days on, 2 days off), 3.0 mg, n = 7, read-out: AUC(0–24), GM (%CV)): 9820 ng·h/mL | half-life ([1]; 3 mg, multiple dose, steady state, Schedule A (5 days on, 2 days off), 3.0 mg, n = 7, read-out: Effective T1/2, mean (SD) (converted)): 25.7 h | AUC(0-t) ([1]; 3 mg, multiple dose, steady state, Schedule A (5 days on, 2 days off), 3.0 mg, n = 8, read-out: AUC(0–T), GM (%CV)): 13400 ng·h/mL | Tmax ([1]; 3 mg, multiple dose, steady state, Schedule A (5 days on, 2 days off), 3.0 mg, n = 8, read-out: Tmax, median (range)): 2.01 h | Cmax ([1]; 3 mg, multiple dose, steady state, Schedule A (5 days on, 2 days off), n = 8): 624 ng/mL | AUC(0-t) ([1]; 3 mg, multiple dose, steady state, Schedule B (14 days on, 7 days off), 3.0 mg, n = 1, read-out: AUC(0–24), GM (%CV)): 13300 ng·h/mL | AUC(0-t) ([1]; 3 mg, multiple dose, steady state, Schedule B (14 days on, 7 days off), 3.0 mg, n = 1, read-out: AUC(0–T), GM (%CV)): 34000 ng·h/mL | half-life ([1]; 3 mg, multiple dose, steady state, Schedule B (14 days on, 7 days off), 3.0 mg, n = 1, read-out: Effective T1/2, mean (SD) (converted)): 37.3 h | Tmax ([1]; 3 mg, multiple dose, steady state, Schedule B (14 days on, 7 days off), 3.0 mg, n = 1, read-out: Tmax, median (range)): 1 h | Cmax ([1]; 3 mg, multiple dose, steady state, Schedule B (14 days on, 7 days off), n = 1): 855 ng/mL | half-life ([1]; 3 mg, multiple dose, steady state, Schedule C (7 days on, 14 days off), 3.0 mg, n = 7, read-out: Effective T1/2, mean (SD) (converted)): 27.3 h | AUC(0-t) ([1]; 3 mg, multiple dose, steady state, Schedule C (7 days on, 14 days off), 3.0 mg, n = 8, read-out: AUC(0–24), GM (%CV)): 8640 ng·h/mL | AUC(0-t) ([1]; 3 mg, multiple dose, steady state, Schedule C (7 days on, 14 days off), 3.0 mg, n = 8, read-out: AUC(0–T), GM (%CV)): 18300 ng·h/mL | Tmax ([1]; 3 mg, multiple dose, steady state, Schedule C (7 days on, 14 days off), 3.0 mg, n = 8, read-out: Tmax, median (range)): 1.66 h | Cmax ([1]; 3 mg, multiple dose, steady state, Schedule C (7 days on, 14 days off), n = 8): 588 ng/mL | AUC(0-t) ([1]; 4.5 mg, multiple dose, steady state, Schedule A (5 days on, 2 days off), 4.5 mg, n = 8, read-out: AUC(0–24), GM (%CV)): 14600 ng·h/mL | AUC(0-t) ([1]; 4.5 mg, multiple dose, steady state, Schedule A (5 days on, 2 days off), 4.5 mg, n = 8, read-out: AUC(0–T), GM (%CV)): 29500 ng·h/mL | half-life ([1]; 4.5 mg, multiple dose, steady state, Schedule A (5 days on, 2 days off), 4.5 mg, n = 8, read-out: Effective T1/2, mean (SD) (converted)): 27.3 h | Tmax ([1]; 4.5 mg, multiple dose, steady state, Schedule A (5 days on, 2 days off), 4.5 mg, n = 8, read-out: Tmax, median (range)): 2 h | Cmax ([1]; 4.5 mg, multiple dose, steady state, Schedule A (5 days on, 2 days off), n = 8): 898 ng/mL | half-life ([1]; 4.5 mg, multiple dose, steady state, Schedule C (7 days on, 14 days off), 4.5 mg, n = 5, read-out: Effective T1/2, mean (SD) (converted)): 27.6 h | AUC(0-t) ([1]; 4.5 mg, multiple dose, steady state, Schedule C (7 days on, 14 days off), 4.5 mg, n = 7, read-out: AUC(0–24), GM (%CV)): 11300 ng·h/mL | AUC(0-t) ([1]; 4.5 mg, multiple dose, steady state, Schedule C (7 days on, 14 days off), 4.5 mg, n = 7, read-out: AUC(0–T), GM (%CV)): 20000 ng·h/mL | Tmax ([1]; 4.5 mg, multiple dose, steady state, Schedule C (7 days on, 14 days off), 4.5 mg, n = 7, read-out: Tmax, median (range)): 2 h | Cmax ([1]; 4.5 mg, multiple dose, steady state, Schedule C (7 days on, 14 days off), n = 7): 901 ng/mL | half-life ([1]; multiple dose, Schedule A, read-out: Mean effective T1/2, range): 25.7 to 36 h | half-life ([1]; multiple dose, Schedule B, read-out: Mean effective T1/2, range): 14.4 to 37.3 h | half-life ([1]; multiple dose, Schedule C, read-out: Mean effective T1/2, range): 27.3 to 31.6 h | AUC(0-t) ([1]; multiple doses, Schedule A, 0.75–4.5-mg doses, read-out: Geometric mean AUC(0–T), range): 3450 to 29500 ng·h/mL | AUC(0-t) ([1]; multiple doses, Schedule A, read-out: AUC(0–24), range): 2720 to 14600 ng·h/mL | AUC(0-t) ([1]; multiple doses, Schedule B, 2.0–3.0-mg dose groups, read-out: Geometric mean AUC(0–T), range): 6320 to 34000 ng·h/mL | AUC(0-t) ([1]; multiple doses, Schedule B, read-out: AUC(0–24), range): 3430 to 13300 ng·h/mL | AUC(0-t) ([1]; multiple doses, Schedule C, 2.0–4.5 mg, read-out: Geometric mean AUC(0–T), range): 18300 to 20000 ng·h/mL | AUC(0-t) ([1]; multiple doses, Schedule C, read-out: AUC(0–24), range): 8560 to 11300 ng·h/mL | Tmax ([1]; multiple-dose administration, read-out: Tmax, range across all doses and schedules): 1 to 3.14 h | Dose proportionality of PK profile ([1]; multiple-dose administration, Schedule A): approximately dose proportional; also recorded: dose-proportional PK profile | Dose proportionality of PK profile ([1]; multiple-dose administration, Schedule C): less than dose proportional
